Like-named read-outs stand apart in the source and are kept apart here.
How the values were obtained:
[1] = tested on: L. infantum (MHOM/BR/2002/LPC-RPV) promastigotes; assay: In vitro antileishmanial activity against promastigotes (resazurin); type: cell-based, Leishmania infantum; settings: 48 h at 28 °C, three independent experiments
Experimental: (§1) L. infantum (MHOM/BR/2002/LPC-RPV) promastigotes were maintained in Schneider’s medium supplemented with 10% (v/v) fetal bovine serum (FBS, Gibco) and 100 U/mL penicillin and 100 μg/mL streptomycin at 28 °C. MRC-5 human primary fetal lung fibroblast cells were maintained in RPMI 1640 medium supplemented with 10% heat-inactivated fetal calf serum (FCS) and 25 mM HEPES under a 5% CO2 atmosphere at 37 °C and pH 7.4.
To evaluate the effect of prioritized compounds on parasite viability, 4 × 10^6 promastigotes/mL were incubated in the presence of a series of 11 points from 200–0.195 or 50–0.04 μM plus control (0.1% DMSO) for 48 h at 28 °C to a final volume of 200 μL in 96-well microplate. Next, 20 μL of resazurin solution (0.39 mM) was added to each well and incubated for 4 h, and then fluorescence was recorded (570 nmex/595 nmem) on a microplate reader SpectraMax M5 (Molecular Devices, Sunnyvale, CA). The IC50 from three independent experiments was calculated from the dose–response curve fitted in a four-parameter logistic, nonlinear regression model using GraphPad Prism software (CA) v.8.

[2] = tested on: MRC-5 human primary fetal lung fibroblast cells; assay: In vitro cytotoxicity test on MRC-5 cells (resazurin); type: cell-based; settings: for SI (selectivity index): ratio of CC50 (MRC-5) to IC50 (L. infantum)
Experimental: as §1
(§2) MRC-5 cells were seeded in 96-well plates at a density of 1 × 10^4 cells/well using 100 μL of medium. After 24 h, compounds were serially diluted in another set of 96-well plates starting from a concentration of 250 μM (11 dilution points plus the control), using 100 μL of complete culture medium per well. Subsequently, 100 μL of these diluted compounds were transferred to the seeded cells. Amphotericin B (Sigma-Aldrich) dissolved in DMSO was used as a control and diluted from an initial concentration of 0.5 μM. After 72 h of incubation, resazurin was added to a final concentration of 45 μM and incubated for 4 h before measuring fluorescence.

[3] = as above; type: cell-based, human; settings: human, MRC-5 primary fetal lung fibroblast cells, pH 7.4, MRC-5 cells, 72 h incubation, resazurin; two independent experiments
Experimental: as §1, §2

L. donovani [4] = tested on: L. donovani; design: method as in ref 44 (Khare et al.); settings: Figure 10; ref 44 (Khare et al.); cited from earlier work
THP-1 = tested on: THP-1; design: method as in ref 45 (Wyllie et al.); settings: Figure 10; ref 45 (Wyllie et al.); cited from earlier work
L. donovani [5] = tested on: L. donovani; design: method as in ref 45 (Wyllie et al.); settings: Figure 10; ref 45 (Wyllie et al.); cited from earlier work
3T3 = tested on: 3T3; design: method as in ref 44 (Khare et al.); settings: Figure 10; ref 44 (Khare et al.); cited from earlier work
macrophage = tested on: macrophage; design: method as in ref 44 (Khare et al.); settings: Figure 10; ref 44 (Khare et al.); cited from earlier work

Row | IC50 ([1]; Leishmania infantum, 48 h) | Compound | CC50 at 72 h [3] | other results
1 | > 100 µM | CC(=O)Nc1ccc(S(=O)(=O)Nc2cc(C)nn2-c2ccccn2)cc1 [LC-38] |  | 
2 | 4.51 ± 2.25 µM | Fc1ccc(OCc2nc3cc(Cl)ccc3[nH]2)cc1 [LC-31] | 40.7 ± 4.33 µM | SI (selectivity index) [2]: 9.04
3 | 0.079 ± 0.001 µM | C[C@@H]1[C@H](O)[C@@H](C)/C=C/C=C/C=C/C=C/C=C/C=C/C=C/[C@H](O[C@@H]2O[C@H](C)[C@@H](O)[C@H](N)[C@@H]2O)C[C@@H]2O[C@](O)(C[C@@H](O)C[C@@H](O)[C@H](O)CC[C@@H](O)C[C@@H](O)CC(=O)O[C@H]1C)C[C@H](O)[C@H]2C(=O)O [Amphotericin B, reference compound] | > 0.67 µM | 
4 | 17.1 ± 2.89 µM | Cc1cc(C)nc(-n2nc(C)c3c2NC(=O)CC3c2ccc3c(c2)OCO3)n1 (centres unmarked) [LC-35] | 145 ± 21.8 µM | SI (selectivity index) [2]: 8.47
5 | 1.5 µM | O=C(Nc1ccc(Cl)c(-c2nc3ncccc3o2)c1)c1cccs1 [LC-15] | > 32.4 µM | CC50 ([2]; MRC-5 cells, 72 h incubation, resazurin, two independent experiments): 32.4 ± 8.31 µM; SI (selectivity index) [2]: 30.9; IC50 [1]: 1.05 ± 0.37 µM
6 | > 100 µM | Cc1nc2ccc(Cl)cn2c1C(=O)N1CCCC1c1ccccn1 (centres unmarked) [LC-25] |  | 
7 | > 100 µM | O=C(Nc1cccnc1Cl)c1cc(-c2ccc3c(c2)OCO3)on1 [LC-36] |  | 
8 |  | Cc1nc(C)c(C(=O)Nc2ccc(F)c(-c3nc4ncc(-c5ccccc5)cn4n3)c2)o1 [GNF3849] |  | IC50 (L. donovani [4]): 0.071 µM
9 |  | O=C(Nc1ccc(F)c(-c2cn3nc(-c4ccccc4)cnc3n2)c1)N1CCCC1 [compound 7] |  | CC50 (THP-1): > 50 µM; IC50 (L. donovani [5]): 0.35 µM
10 |  | Cc1nc(C)c(C(=O)Nc2ccc(F)c(-c3nc4ncc(-c5ccccn5)cn4n3)c2)o1 [GNF6702] |  | IC50 (L. donovani [4]): 0.0018 µM
11 |  | O=C(Nc1ccc(F)c(-c2cn3cc(-c4ccccc4)cnc3n2)c1)N1CCCC1 [compound 6] |  | CC50 (THP-1): > 50 µM; IC50 (L. donovani [5]): 0.15 µM
12 | 15.6 ± 2.36 µM | Cc1ccc(C2CC(=O)Nc3c2c(C)nn3-c2nc(C)cc(C)n2)cc1 (centres unmarked) [LC-37] | > 250 µM | SI (selectivity index) [2]: >15.9
13 |  | CC(C)OC(=O)Nc1cnc2nc(-c3cc(NC(=O)c4ccco4)ccc3Cl)cn2c1 [GNF2636] |  | CC50 (3T3): 3.5 µM; IC50 (L. donovani [4]): 0.35 µM; CC50 (macrophage): 14.1 µM
14 | 11.9 ± 1.7 µM | CN1CCC(Nc2nccc(-c3ccccn3)n2)C(Cc2ccccc2)C1 (centres unmarked) [LC-26] | 48.4 ± 16.9 µM | 
15 | > 100 µM | Cc1nc(O)cc(C2CCN(c3nccc(-c4ccccn4)n3)CC2)n1 [LC-27] |  | 

Row | Compound | IC50 ([1]; Leishmania infantum, 48 h) | CC50 at 72 h [3] | other results
16 | Cc1cc(NCc2ccncc2C)nc(N2CCCCC2)n1 [LC-20] | > 100 µM |  | 

— publication PMC11696749, “Deep Multitask Learning-Driven Discovery of New Compounds Targeting Leishmania infantum” (ACS Omega, 2024)
